One compound from paper PMC9137479, “The Class A β-Lactamase Produced by Burkholderia Species Compromises the Potency of Tebipenem against a Panel of Isolates from the United States” (Antibiotics, 2022) can be followed below.

One experiment has as its target T1, PenA1 (Burkholderia multivorans, UniProt A0A0H3KN52).
T1 construct: gene ampC; purified class A beta-lactamase
In words: steady-state inhibition kinetics. The class given is biochemical. The following applies: read-out: PenA1; covalent acyl-enzyme; slow substrate; partition ratio method at 15 min; 10 mM PBS pH 7.4, ~25 °C (stated for hydrolysis curves). The source says:
steady-state inhibition kinetics on PenA1

A further experiment concerns the target T2, AmpC1 (Burkholderia multivorans, UniProt A0A0H3KQ39).
T2 construct: gene ampC; purified class C beta-lactamase
As to the kind of experiment: steady-state inhibition kinetics. The following applies: covalent acyl-enzyme; not hydrolysed; 10 mM PBS pH 7.4, ~25 °C (stated for hydrolysis curves). The class given is biochemical. The source says: steady-state inhibition kinetics on AmpC1

Each structure is given as a SMILES string.

T1 sequence (A0A0H3KN52 entry or part of it): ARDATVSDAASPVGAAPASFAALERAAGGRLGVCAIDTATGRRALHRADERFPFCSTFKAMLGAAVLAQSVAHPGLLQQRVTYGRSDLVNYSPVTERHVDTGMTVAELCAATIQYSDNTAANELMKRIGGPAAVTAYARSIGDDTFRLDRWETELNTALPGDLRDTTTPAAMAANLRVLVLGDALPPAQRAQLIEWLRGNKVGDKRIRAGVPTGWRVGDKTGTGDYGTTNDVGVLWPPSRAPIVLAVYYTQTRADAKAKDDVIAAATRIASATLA
T2 sequence (A0A0H3KQ39 entry or part of it): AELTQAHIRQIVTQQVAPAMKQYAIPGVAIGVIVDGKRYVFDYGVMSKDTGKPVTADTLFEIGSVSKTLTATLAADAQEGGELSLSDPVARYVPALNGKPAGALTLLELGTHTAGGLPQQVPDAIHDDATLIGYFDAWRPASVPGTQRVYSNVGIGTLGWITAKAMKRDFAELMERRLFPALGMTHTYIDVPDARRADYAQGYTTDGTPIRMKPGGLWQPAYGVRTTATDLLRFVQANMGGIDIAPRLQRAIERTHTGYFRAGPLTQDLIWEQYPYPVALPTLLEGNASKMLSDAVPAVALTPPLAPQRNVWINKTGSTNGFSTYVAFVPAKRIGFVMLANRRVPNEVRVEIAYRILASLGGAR

In the case of `C[C@@H](O)[C@H]1C(=O)N2C(C(=O)O)=C(SC3CN(C4=NCCS4)C3)[C@H](C)[C@H]12` [tebipenem], the results for the Ki at PenA1 and at AmpC1 were 4.7 ± 0.5 µM and 22 ± 2 µM, respectively.
